In patent US9408393B2, “Bismuth-thiols as antiseptics for agricultural, industrial and other uses” (Microbion Corporation, priority 2010, dated 2016):
Read-outs that look alike come from different tables or passages of the source.

Legend:
[1] = test system: S. epidermidis; assay: Broth dilution MIC/MBC, BT-antibiotic combinations; assay type: cell-based, Staphylococcus epidermidis; details: S. epidermidis S2400-1
Description: Materials & Methods. Susceptibility studies were performed by broth dilution in 96-well tissue culture plates (Nalge Nunc International, Denmark) in accordance with NCCLS protocols (National Committee for Clinical Laboratory Standards. (1997). Methods for Dilution Antimicrobial Susceptibility Tests for Bacteria that Grow Aerobically: Approved Standard M7-A2 and Informational Supplement M100-S10. NCCLS, Wayne, Pa., USA).
Briefly, overnight bacterial cultures were used to prepare 0.5 McFarland standard suspensions, which were further diluted 1:50 (˜2×10^6 cfu/mL) in cation-adjusted Mueller-Hinton broth medium (BBL, Cockeysville, Md., USA). BTs (prepared as described above) and antibiotics were added at incremental concentrations, keeping the final volume constant at 0.2 mL. Cultures were incubated for 24 h at 37° C. and turbidity was assessed by absorption at 630 nm using an ELISA plate reader (Biotek Instruments, Winooski, Vt., USA) according to the manufacturer's recommendations. […] Viable bacterial counts (cfu/mL) were determined by standard plating on nutrient agar.
The checkerboard method was used to assess the activity of antimicrobial combinations. The fractional inhibitory concentration index (FICI) and the fractional bactericidal concentration index (FBCI) were calculated, according to Eliopoulos et al. (Eliopoulos and Moellering, (1996) Antimicrobial combinations. In Antibiotics in Laboratory Medicine (Lorian, V., Ed.), pp. 330-96, Williams and Wilkins, Baltimore, Md., USA). Synergy was defined as an FICI or FBCI index of […], no interaction at >0.5-4 and antagonism at >4 (Odds, F C (2003) Synergy, antagonism, and what the chequerboard puts between them. Journal of Antimicrobial Chemotherapy 52:1). Synergy was also defined conventionally as ≧4-fold decrease in antibiotic concentration.

[2] = test system: S. epidermidis S2400-1 biofilm; assay: Biofilm prevention, BisEDT-antibiotic combinations; assay type: cell-based, Staphylococcus epidermidis
Description: (§1) S. epidermidis grown in TSB+2% glucose in polystyrene plates for 48 h at 37° C. Gatifloxacin (GF), clindamycin (CM), minocycline (MC), gentamicin (GM), vancomycin (VM), cefazolin (CZ), nafcillin (NC), and rifampicin (RP). […]

[3] = test system: MRSA clinical isolates; assay: Broth dilution MIC in BHIG/X medium with subMIC BisEDT; assay type: cell-based, Staphylococcus aureus; details: Staphylococcus aureus, MRSA, 12 MRSA clinical isolates, BHIG/X, mean ± SD, read-out: MIC
Description: (§2) Broth dilution antimicrobial susceptibility studies were performed against 12 MRSA strains using several antibiotics combined with subMIC levels of BisEDT (Table 18). Both the biofilm-prevention concentration (BPC) and the minimum inhibitory concentration (MIC) were determined in a special biofilm culture medium (BHIG/X). […] These strains were already sensitive to vancomycin, but were made considerably moreso in the presence of subMIC BisEDT.
In this particular study, the data indicated synergy between BisEDT and cefepime (FIC<0.5), with many of the isolates at the breakpoint for sensitivity.

[4] = test system: MRSA clinical isolates biofilm; assay: Biofilm-prevention concentration (BPC) in BHIG/X medium with subMIC BisEDT; assay type: cell-based, Staphylococcus aureus; details: 12 MRSA clinical isolates, mean ± SD
Description: as §2

[5] = test system: lawn of MRSA (Methicillin-resistant S. aureus); assay: Antibiotic-soaked discs on bacterial lawn with and without BisEDT; assay type: cell-based, Staphylococcus aureus; details: antibiotic discs combined with BisEDT 0.05 μg/ml
Description: FIGS. 4A and 4B show the subinhibitory BisEDT reversing antibiotic-resistance to several antibiotics. Effects of antibiotics with and without BisEDT (0.05 μg/ml) on a lawn of MRSA (Methicillin-resistant S. aureus) is shown. […] [GM=gentamicin, CZ=cefazolin, FEP=cefepime, IPM=imipenim, SAM=ampicillin/sulbactam, LVX=levofloxacin.

[6] = test system: S. epidermidis biofilm; assay: Biofilm prevention concentration (BPC), BisEDT and antibiotics; assay type: cell-based, Staphylococcus epidermidis; details: 0.05 μg/ml BisEDT
Description: as §1

[7] = test system: S. epidermidis; assay: Growth inhibition (MIC) and MBC, BisEDT and antibiotics; assay type: cell-based, Staphylococcus epidermidis
Description: Results are expressed as the mean change in MIC (dilution steps) with increasing BisEDT (n=3). See legend in FIG. 5 for antibiotic definitions.
The MIC change was most pronounced for clindamycin and gentamicin, followed by vancomycin, cefazolin, minocycline, gatifloxacin and nafcillin, with rifampicin unaffected.
Minimum bactericidal concentration (MBC) for most antibiotics tested against S. epidermidis decreased slightly with subMIC BisEDT. […] Clindamycin is a bacteriostatic agent, which explains its lack of bactericidal activity. Cefazolin resistance was reversed with respect to the MBC [Domenico et al., 2003]. These effects were additive.

[8] = test system: MRSA clinical isolates; details: cited from earlier work

Cc1nnc(SCC2=C(C(=O)O)N3C(=O)[C@@H](NC(=O)Cn4cnnn4)[C@H]3SC2)s1 [Cefazolin, cefazolin]
Synergy, MBC [1]: + (Synergy was also defined conventionally as ≧4-fold decrease in antibiotic concentration)
Synergy, MIC [1]: + (Synergy was also defined conventionally as ≧4-fold decrease in antibiotic concentration)
Δ (0.05 BE), MIC ([1]; 0.05 μg/ml BisEDT): 4.00
Δ (0.1 BE), MBC ([1]; 0.1 μg/ml BisEDT): 4.80
MIC ([1]; BisEDT 0 μg/ml): 32 µg/mL
MBC ([1]; BisEDT 0.0 μg/ml): 48 µg/mL
MIC ([1]; BisEDT 0.05 μg/ml): 8 µg/mL
MBC ([1]; BisEDT 0.1 μg/ml): 10 µg/mL
MIC ([1]; BisEDT 0.1 μg/ml): 1 µg/mL
Δ (0.05 BE), biofilm prevention ([2]; 0.05 μg/ml BisEDT): 2.8
Biofilm Prevention (antibiotic concentration) ([2]; BisEDT 0 μg/ml): 28 µg/mL
Biofilm Prevention (antibiotic concentration) ([2]; BisEDT 0.05 μg/ml): 10 µg/mL
Biofilm Prevention (antibiotic concentration) ([2]; BisEDT 0.1 μg/ml): 1 µg/mL
MIC ([3]; BisEDT 0 μg/mL): 93 ± 75 µg/mL
MIC ([3]; BisEDT 0.025 μg/mL): 99 ± 76 µg/mL
MIC ([3]; BisEDT 0.05 μg/mL): 90 ± 60 µg/mL
MIC ([3]; BisEDT 0.1 μg/mL): 45 ± 32 µg/mL
BPC ([4]; BisEDT 0 μg/mL): 109 ± 86 µg/mL
BPC ([4]; BisEDT 0.025 μg/mL): 76 ± 86 µg/mL
BPC ([4]; BisEDT 0.05 μg/mL): 76 ± 105 µg/mL
BPC ([4]; BisEDT 0.1 μg/mL): 34 ± 28 µg/mL
Antibiotic action on MRSA lawn with subMIC BisEDT [5]: enhanced antibiotic action
Change of biofilm prevention concentration (BPC) [6]: modest decreases
Reduction in MBC with subMIC BisEDT [7]: 4- to 5 fold
MIC change (growth inhibition) with BisEDT ([7]; 0.1 μg/ml (0.5 μM) BisEDT): resistance was reversed to clinically relevant levels
MIC Standards, R (resistance) ([8]; Standard MIC breakpoint for resistance): ≧32 μg/ml
MIC Standards, S (antibiotic sensitivity) ([8]; Standard MIC breakpoint for sensitivity): ≦8 μg/ml
